Among the test systems are UO-31 renal; MOLT-4 leukemia; SF-539 CNS; ACHN renal; DU-145 prostate; SNB-75 CNS; MALME-3M melanoma; TK-10 renal.
What all share (assay): inhibition of tumour cell growth, NCI panel, 48 h

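Method: 48-hour compound exposure of cells in 96-well plates, five concentrations, linear interpolation of endpoints. Here, GI50 denotes the concentration required for 50% inhibition of growth. Definition used: TGI = concentration required for complete inhibition of growth.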 Bounds are passed on as bounds.

Experimental findings from PubChem BioAssay (NCI) are described below.

With `COc1cc(CNCCCCCCN2C(=O)c3cccc4cccc(c34)C2=O)ccc1O`, the GI50 in the assay on UO-31 renal was 2.65 µM; in the assay on MOLT-4 leukemia, 3.45 µM; in the assay on SF-539 CNS, 1.82 µM; in the assay on ACHN renal, 5.38 µM; in the assay with DU-145 prostate, 6.08 µM; with SNB-75 CNS, 10.5 µM. Also, the GI50 in the assay with MALME-3M melanoma is 2.02 µM; in the assay with TK-10 renal it was 10.1 µM. Further, the TGI in the assay on UO-31 renal turned out to be 15.2 µM; with MOLT-4 leukemia it was 16.2 µM; with SF-539 CNS it was 3.83 µM; with ACHN renal, 18.4 µM; in the assay with DU-145 prostate, 18.9 µM; in the assay on SNB-75 CNS, 22.4 µM. Moreover, the TGI was 4.63 µM with MALME-3M melanoma and 24.8 µM with TK-10 renal.
Consider `O=C(O)C1=C/C(=C(/c2ccccc2)c2cc(C(=O)O)c(O)c3ccccc23)c2ccccc2C1=O`, for which the TGI in the assay with UO-31 renal, in the assay with MOLT-4 leukemia, with SF-539 CNS, in the assay with ACHN renal, with DU-145 prostate and in the assay with SNB-75 CNS was greater than 100 µM throughout. Further, the TGI with MALME-3M melanoma and in the assay on TK-10 renal was greater than 100 µM in each case.
`c1cc(N[C@@H]2CCNC2)nc(-c2cnc3ccc(-c4cn[nH]c4)cn23)c1`: the GI50 in the assay on UO-31 renal was greater than 69.3 µM; in the assay with MOLT-4 leukemia, 4.39 µM; in the assay with SF-539 CNS, 1.61 µM; in the assay with ACHN renal, 19.2 µM; with DU-145 prostate, 9.09 µM; with SNB-75 CNS it was 1.88 µM. The GI50 with MALME-3M melanoma was 6.98 µM; in the assay with TK-10 renal, 15.3 µM. Also, the TGI in the assay with UO-31 renal was greater than 100 µM; with MOLT-4 leukemia, 51.6 µM; with SF-539 CNS, 8.17 µM; in the assay with ACHN renal it was greater than 100 µM; in the assay with DU-145 prostate it was greater than 100 µM; with SNB-75 CNS, 5.77 µM. Moreover, the TGI was 26.9 µM in the assay on MALME-3M melanoma and 62.8 µM in the assay on TK-10 renal.
`COc1cc(/C=C2\C(=O)N(Cc3ccc(Cl)cc3)c3ccccc32)cc(OC)c1OC`: the GI50 was 2.06 µM in the assay with UO-31 renal; 2.2 µM with MOLT-4 leukemia; 4.95 µM in the assay with SF-539 CNS; 2.9 µM in the assay on ACHN renal; 2.05 µM with DU-145 prostate; 5.31 µM in the assay with SNB-75 CNS. Also, the GI50 in the assay on MALME-3M melanoma is 3.73 µM; with TK-10 renal it was 3.09 µM. For the same compound, the TGI with UO-31 renal was 6.8 µM; in the assay with MOLT-4 leukemia it was 5.97 µM; with SF-539 CNS, 11.1 µM; in the assay on ACHN renal, 8.37 µM; with DU-145 prostate it was 5.04 µM; in the assay with SNB-75 CNS, greater than 100 µM. For the same compound, the results for the TGI in the assay on MALME-3M melanoma and in the assay on TK-10 renal were 16.3 µM and 30.1 µM, respectively.
With `COc1ccc2nc3cc(Cl)ccc3c(NCCCNCCO)c2c1`, the GI50 with UO-31 renal is 0.602 µM; in the assay on MOLT-4 leukemia it was 0.413 µM; with SF-539 CNS, 0.508 µM; in the assay on ACHN renal, 0.403 µM; in the assay with DU-145 prostate, 0.48 µM; in the assay on SNB-75 CNS, 0.744 µM. Moreover, the values for the GI50 with MALME-3M melanoma and with TK-10 renal were 1.21 µM and 0.587 µM, respectively. Also, the TGI came out at 3.19 µM with UO-31 renal; 3.4 µM with MOLT-4 leukemia; 2.35 µM with SF-539 CNS; 3.25 µM in the assay on ACHN renal; 2.77 µM in the assay on DU-145 prostate; 2.26 µM with SNB-75 CNS. Besides, the TGI with MALME-3M melanoma is 2.82 µM; in the assay with TK-10 renal, 3.2 µM.
For `c1ccc(-c2oc(-c3ccccc3)c(CN3CCCCC3)c2CN2CCCCC2)cc1`, the GI50 with UO-31 renal was 2.13 µM; with MOLT-4 leukemia, 2.03 µM; with SF-539 CNS it was 1.68 µM; with ACHN renal, 2.54 µM; in the assay on DU-145 prostate, 7.72 µM; with SNB-75 CNS, 4.13 µM. Further, the GI50 with MALME-3M melanoma is 1.75 µM; in the assay on TK-10 renal, 4.58 µM. For the same compound, the TGI with UO-31 renal is 11.1 µM; in the assay with MOLT-4 leukemia, 5.58 µM; in the assay on SF-539 CNS, 3.47 µM; in the assay on ACHN renal it was 10.2 µM; in the assay on DU-145 prostate it was 21.6 µM; in the assay on SNB-75 CNS, 18.6 µM. For the same compound, the TGI was determined as 3.65 µM in the assay on MALME-3M melanoma and 19 µM with TK-10 renal.
For `COc1ccc(-c2cc(-c3ccc(Nc4nc(Nc5ccccc5)nc(Nc5ccc(Cl)cc5)n4)cc3)nc(N)n2)cc1`, the GI50 in the assay on UO-31 renal is 8.13 µM; in the assay on MOLT-4 leukemia, 0.623 µM; in the assay with SF-539 CNS it was 10.3 µM; with ACHN renal, 16.4 µM; in the assay on DU-145 prostate, 12.1 µM; in the assay with SNB-75 CNS it was 6.02 µM. Moreover, the GI50 is 15.2 µM in the assay on MALME-3M melanoma and 14.2 µM in the assay with TK-10 renal. For the same compound, the TGI with UO-31 renal was greater than 50 µM; in the assay on MOLT-4 leukemia, 12 µM; with SF-539 CNS, 25.8 µM; with ACHN renal it was greater than 50 µM; in the assay on DU-145 prostate, 26.9 µM; in the assay on SNB-75 CNS, 48.1 µM. Further, the TGI in the assay on MALME-3M melanoma and with TK-10 renal was greater than 50 µM each time.
